These results are taken from US20150224089A1, “COMBINATIONS OF IKKi/TBK1 INHIBITORS WITH BETA ADRENERGIC AGONISTS OR SYMPATHETIC NERVOUS SYSTEM ACTIVATORS” (THE REGENTS OF THE UNIVERSITY OF MICHIGAN, priority 2014, published 2015).

In one assay the test system is diet-induced obese mice. The experiment in a line: Serum FFA and glycerol after CL-316,243 injection in ND- or HFD-fed mice. The assay is classed as in vivo. The conditions noted are these: amlexanox-treated HFD mice compared to vehicle-treated HFD-fed mice; oral gavage 4 days. The method, then: (§1) (A) Fold increase in serum FFA (left panel) and glycerol (right panel) levels 15 min after CL-316,243 injection in ND- or HFD-fed mice treated with amlexanox or vehicle control for 4 days. (B) Glycerol release from ex vivo epididymal (left panel) and inguinal (right panel) WATs after 1 hr pretreatment with amlexanox or vehicle. CL-316,243 treatment was started at time zero. (C) Immunoblots in inguinal WAT lysates from FIG. 5B after 60 min of CL-316,243 treatment. (D) cAMP levels in epididymal WAT 20 min after CL-316,243 (CL) or saline control injection in HFD-fed mice treated with amlexanox or vehicle control for 4 days. (E) Immunoblots in epididymal WAT 5 min after CL-316,243 or saline control injection in HFD-fed mice treated with amlexanox or vehicle control for 4 days. (F) Relative oxygen comsumption of mice in each treatment group.
To test the functional importance of the noncanonical IKKs in maintaining energy balance in vivo, experiments were conducted during development of embodiments of the present invention to investigate whether the administration of a selective inhibitor of IKKε and TBK1, amlexanox, can reverse diet-induced catecholamine resistance in rodentsMice were fed a high fat or normal diet, treated them with amlexanox by oral gavage for 4 days (prior to the point when weight loss is seen), and then gave a single intraperitoneal (IP) injection of the β3-adrenergic agonist CL-316,243. Injection of CL-316,243 stimulated a threefold increase in serum FFA and glycerol levels in both vehicle and amlexanox-treated mice on normal diet (ND).

Another assay relates to inguinal WAT. Put plainly: Immunoblots in ex vivo inguinal WAT lysates after CL-316,243 treatment. On the set-up: species or system mice. The method, then: as §1, with “group. […]” for “group.”
Background: In western blotting, separated proteins are transferred to a membrane and probed.

The next assay concerns 3T3-L1 adipocytes. Put plainly: Glycerol release (lipolysis) from 3T3-L1 adipocytes. Particulars: TNFα for 24 hr, different concentrations; 10 μM ISO or 50 μM FSK. The assay is classed as cell-based. The method, then:
(A) Fold increase in Ucp1 expression in 3T3-L1 adipocytes expressing empty vector, Flag-IKKε, or Flag-IKKε K38A following treatment with or without 10 μM ISO (black bars) or 10 μM CL-316,243 (CL, gray bars) for 4 hr. (B) Glycerol release from 3T3-L1 adipocytes expressing empty vector (white bars), Flag-IKKε (black bars), or Flag-IKKε K38A (gray bars) treated with or without 10 μM ISO or 10 μM CL. (C) Immunoblots of whole cell lysates from FIG. 1B. Results were replicated in triplicate. D.E. stands for dark exposure and L.E. stands for light exposure. (D) Immunoblots of whole cell lysates from 3T3-L1 adipocytes expressing empty vector or Flag-IKKε treated with or without 50 μM FSK for 15 min. (E) cAMP levels from 3T3-L1 adipocytes expressing empty vector, Flag-IKKε, or Flag-IKKε K38A treated with or without 10 μM ISO or 50 μM FSK for 15 min.
(A) Glycerol release from 3T3-L1 adipocytes treated with or without different concentrations of TNFα as indicated for 24 hr followed by treatment with or without 10 μM ISO or 50 μM FSK. (B) cAMP levels from 3T3-L1 adipocytes treated with or without 100 ng/ml TNFα for 24 hr followed by treatment with or without 10 μM ISO or 50 μM FSK in the presence or absence of pretreatment of 50 μM Amlexanox (Am). (C) cAMP levels from 3T3-L1 adipocytes treated with or without 100 ng/ml TNFα for 24 hr followed by treatment with or without 50 μM FSK in the presence or absence of pretreatment of 1 μM CAY10576 (CAY). (D) Immunoblots of whole cell lysates from 3T3-L1 adipocytes treated with or without different concentrations of TNFα as same as FIG. 2A for 24 hr followed by treatment with or without 10 μM ISO or 50 μM FSK. Results were replicated in multiple experiments. ‘[’ indicates total HSL. ‘n.s.’ represents non-specific band. Arrow indicates CGI-58. (E) Immunoblots of whole cell lysates from 3T3-L1 adipocytes treated with or without 50 ng/ml TNFα or 100 μg/ml poly (I:C) for 24 hr followed by treatment with or without 10 μM ISO for 15 min in the presence or absence of pretreatment with increasing concentrations (0, 10, 50, and 200 μM) of amlexanox for 30 min.
The obesity-dependent increase was modeled in the noncanonical IKKs by overexpressing IKKε in 3T3-L1 adipocytes, followed by assay of glycerol release in response to ISO or CL-316,243. […] Overexpression of TBK1 reduced phosphorylation of HSL in response to isoproterenol or the adenylyl cyclase activator, forskolin (FIG. 1). Identical results were obtained when IKKε was overexpressed in 3T3-L1 adipocytes stimulated with forskolin (FIG. 1D), as detected by western blotting with an anti-phospho-PKA substrate motif antibody. […]

Regarding `CC(C)c1ccc2oc3nc(N)c(C(=O)O)cc3c(=O)c2c1` [amlexanox, 2-amino-7-isopropyl-1-azaxanthone-3-carboxylic acid; 2-amino-7-isopropyl-5-oxo-5H-chromeno[2,3-b]pyridine-3-carboxylic acid], in the assay with diet-induced obese mice, the “fold increase in serum glycerol levels after CL-316,243” value is recorded as “significantly higher”. For the same compound, the “phosphorylation of TBK1 at Ser172” value in the assay with inguinal WAT (ex vivo amlexanox pretreatment, relief of feedback inhibition) was “increased”. In addition, the “phosphorylation of HSL, perilipin and PKA substrate motif proteins in response to CL-316,243” value in the assay on inguinal WAT (inguinal fat depot, amlexanox pretreatment vs vehicle-pretreated, 60 min CL-316,243) is reported as “increased phosphorylation”.

Consider TNFα, for which, in the assay with 3T3-L1 adipocytes, the “glycerol release in response to isoproterenol and forskolin” value is reported as “decreased glycerol release”.
